Drawing on ChEMBL document CHEMBL5614376, “Discovery of MT-1207: A Novel, Potent Multitarget Inhibitor as a Promising Clinical Candidate for the Treatment of Hypertension” (J Med Chem, 2024), this text covers inhibition for 36 compounds.

Common to all, as to format: cell membranes
For test [1], the target named is T1, 5-hydroxytryptamine receptor 2A (Homo sapiens, UniProt P28223). Description: Displacement of [3H]Ketanserin from recombinant human 5-HT2A receptor extracted from CHO cell membrane at 100 nM incubated for 60 mins by radioligand binding assay relative to control. For orientation: Loss of bound radioactivity is the signal in a displacement assay; it reports binding, not function.
T1 sequence (P28223 whole entry): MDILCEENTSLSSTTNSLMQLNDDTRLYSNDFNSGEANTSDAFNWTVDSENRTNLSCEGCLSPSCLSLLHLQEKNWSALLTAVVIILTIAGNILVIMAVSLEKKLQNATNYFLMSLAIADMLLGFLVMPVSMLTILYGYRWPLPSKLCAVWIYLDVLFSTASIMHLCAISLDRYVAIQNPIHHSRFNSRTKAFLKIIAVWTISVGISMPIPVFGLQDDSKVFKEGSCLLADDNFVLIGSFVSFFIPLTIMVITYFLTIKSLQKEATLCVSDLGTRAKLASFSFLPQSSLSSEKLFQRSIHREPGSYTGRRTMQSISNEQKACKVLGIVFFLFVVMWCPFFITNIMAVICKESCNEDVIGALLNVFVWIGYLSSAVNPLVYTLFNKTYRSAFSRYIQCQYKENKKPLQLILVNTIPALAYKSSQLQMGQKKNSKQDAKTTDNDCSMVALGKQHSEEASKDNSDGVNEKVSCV

The target in test [2] is T2, Alpha-1A adrenergic receptor (Homo sapiens) (UniProt P35348).
T2 sequence (whole entry): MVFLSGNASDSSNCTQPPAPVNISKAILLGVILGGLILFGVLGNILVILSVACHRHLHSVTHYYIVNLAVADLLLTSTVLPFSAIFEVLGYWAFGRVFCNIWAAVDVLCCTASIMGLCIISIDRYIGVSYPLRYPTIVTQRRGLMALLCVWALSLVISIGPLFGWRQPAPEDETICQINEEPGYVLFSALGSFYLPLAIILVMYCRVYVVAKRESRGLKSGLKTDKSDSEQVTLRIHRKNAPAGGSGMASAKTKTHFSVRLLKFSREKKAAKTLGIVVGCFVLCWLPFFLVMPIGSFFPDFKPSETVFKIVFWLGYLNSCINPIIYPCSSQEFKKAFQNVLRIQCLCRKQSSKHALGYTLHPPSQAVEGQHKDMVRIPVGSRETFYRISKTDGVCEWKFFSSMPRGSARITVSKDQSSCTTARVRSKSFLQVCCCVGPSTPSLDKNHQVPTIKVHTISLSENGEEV
The test can be described thus: Displacement of [3H]prazosin from recombinant human alpha 1A adrenoceptor extracted from CHO cell membrane at 1 nM incubated for 60 mins by radioligand binding assay relative to control.

The target of test [3] is T2, Alpha-1A adrenergic receptor (Homo sapiens). The test can be described thus: Displacement of [3H]prazosin from recombinant human alpha 1A adrenoceptor extracted from CHO cell membrane at 100 nM incubated for 60 mins by radioligand binding assay relative to control.
For test [4] the target is unchanged. Description: Displacement of [3H]prazosin from recombinant human alpha 1A adrenoceptor extracted from CHO cell membrane at 10 nM incubated for 60 mins by radioligand binding assay relative to control.
For test [5], the target named is T1, 5-hydroxytryptamine receptor 2A. The test can be described thus: Displacement of [3H]Ketanserin from recombinant human 5-HT2A receptor extracted from CHO cell membrane at 10 nM incubated for 60 mins by radioligand binding assay relative to control.
Test [6] has the same target. Description: Displacement of [3H]Ketanserin from recombinant human 5-HT2A receptor extracted from CHO cell membrane at 1 nM incubated for 60 mins by radioligand binding assay relative to control.

For `FC(F)(F)c1cccc(N2CCN(CCCCCn3nc4ccccc4n3)CC2)c1`, the inhibition in test [1] turned out to be 14%; in test [2], 8.76%; in test [3] (filed as antagonist), 44.8%; in test [4], 14.8%.

`COc1cccc(OC)c1OCCNCC1COc2ccccc2O1` (centres undefined): the inhibition in test [2] (filed as antagonist) was determined as 46.3%; in test [3] (filed as antagonist), 102%; in test [4] (filed as antagonist), 87%.

For `Clc1cccc(N2CCN(CCCCn3cnc4ccccc43)CC2)c1`, the inhibition in test [1] (filed as antagonist) was 67.2%; in test [5], -1.87%; in test [2], 15.4%; in test [3] (filed as antagonist), 98.5%; in test [4] (filed as antagonist), 71.6%.

Regarding `Fc1ccc2c(N3CCN(CCCCn4nnc5ccccc54)CC3)noc2c1`, the inhibition in test [1] (filed as antagonist) was 95.4%; in test [5] (filed as antagonist) it was 71.5%; in test [2] (filed as antagonist) it was 98.6%; in test [3] (filed as antagonist), 96.9%; in test [4] (filed as antagonist), 95%.

`c1ccc2c(c1)nnn2CCCN1CCN(c2nsc3ccccc23)CC1`: the inhibition came out at 98.5% in test [1] (filed as antagonist); 89.4% in test [5] (filed as antagonist); 8.15% in test [6]; 44.5% in test [2] (filed as antagonist); 96.4% in test [3] (filed as antagonist); 82.6% in test [4] (filed as antagonist).

With `FC(F)(F)c1cccc(N2CCN(CCCCn3nc4ccccc4n3)CC2)c1`, the inhibition in test [1] was 38.1%; in test [2], -7.22%; in test [3] (filed as antagonist) it was 53%; in test [4] it was -1.54%.

On to `Fc1cccc(N2CCN(CCCCn3nnc4ccccc43)CC2)c1`, for which the inhibition in test [1] (filed as antagonist) is 54%; in test [5] it was -2.88%; in test [2], -7.76%; in test [3] (filed as antagonist), 91%; in test [4] (filed as antagonist), 46.6%.

In the case of `FC(F)(F)c1cccc(N2CCN(CCn3nnc4ccccc43)CC2)c1`, the inhibition turned out to be 18.9% in test [1] and 3.42% in test [3].

`c1ccc2c(c1)ncn2CCCN1CCN(c2nsc3ccccc23)CC1`: the inhibition in test [1] (filed as antagonist) is 94%; in test [5] (filed as antagonist), 68.8%; in test [6] it was -1.8%; in test [2], 24.6%; in test [3] (filed as antagonist), 98%; in test [4] (filed as antagonist), 74.9%.

Take `c1ccc2c(c1)nnn2OCCCN1CCN(c2nsc3ccccc23)CC1`: the inhibition amounted to 100% in test [1] (filed as antagonist); 81.3% in test [5] (filed as antagonist); 44.2% in test [2] (filed as antagonist); 93.7% in test [3] (filed as antagonist); 82.3% in test [4] (filed as antagonist).

For `FC(F)(F)c1cccc(N2CCN(CCCCCCn3nc4ccccc4n3)CC2)c1`, the inhibition in test [1] is 9.94%; in test [3] it was 30.3%; in test [4], 7.06%.

Regarding `Fc1ccc2c(N3CCN(CCCCn4cnc5ccccc54)CC3)noc2c1`, the inhibition in test [1] (filed as antagonist) was 97%; in test [5] (filed as antagonist) it was 83.1%; in test [6], 22.6%; in test [2] (filed as antagonist) it was 89.6%; in test [3] (filed as antagonist), 101%; in test [4] (filed as antagonist), 100%.

With `Fc1ccc2c(C3CCN(CCCn4cnc5ccccc54)CC3)noc2c1`, the inhibition in test [1] (filed as antagonist) worked out at 94.2%; in test [5] (filed as antagonist), 76%; in test [6], 15.9%; in test [2] (filed as antagonist) it was 69.7%; in test [3] (filed as antagonist) it was 99.9%; in test [4] (filed as antagonist) it was 97.5%.

As to `c1ccc(N2CCN(CCCCn3nnc4ccccc43)CC2)cc1`, the inhibition was 39.2% in test [1], -9.51% in test [2], 79.6% in test [3] (filed as antagonist) and 35% in test [4].

In the case of `Cc1nc2ccccc2n1CCCCN1CCN(c2cccc(C(F)(F)F)c2)CC1`, the inhibition in test [1] was -5.62%; in test [2], 6.89%; in test [3] (filed as antagonist) it was 98.9%; in test [4] (filed as antagonist), 79.8%.

As for `Fc1ccc2c(N3CCN(CCCn4nc5ccccc5n4)CC3)noc2c1`, the inhibition stood at 99.1% in test [1] (filed as antagonist); 79.1% in test [5] (filed as antagonist); 5.91% in test [6]; 29.5% in test [2]; 99.1% in test [3] (filed as antagonist); 65.1% in test [4] (filed as antagonist).

Regarding `FC(F)(F)c1cccc(N2CCN(CCCCn3cnc4ccccc43)CC2)c1`, the inhibition is 37.7% in test [1], -1.42% in test [2], 89.3% in test [3] (filed as antagonist) and 36.4% in test [4].

`O=C(c1ccc(F)cc1)C1CCN(CCn2c(=O)[nH]c3ccccc3c2=O)CC1`: the inhibition came to 89.6% in test [5] (filed as antagonist) and 41.2% in test [6] (filed as antagonist).

With `COc1ccccc1N1CCN(CCCOc2cccc(C)c2C)CC1`, the inhibition in test [1] amounted to 37.7%; in test [3] (filed as antagonist), 40.1%; in test [4], 7.19%.

As to `FC(F)(F)c1cccc(N2CCN(CCCn3nc4ccccc4n3)CC2)c1`, the inhibition in test [1] (filed as antagonist) was 44.7%; in test [2] it was -8.07%; in test [3], 20.7%; in test [4], -9.63%.

In the case of `Fc1cccc(N2CCN(CCCCn3cnc4ccccc43)CC2)c1`, the inhibition in test [1] was 1.87%; in test [2], -3.72%; in test [3] (filed as antagonist), 80.1%; in test [4], 21.3%.

Regarding `FC(F)(F)c1cccc(N2CCN(CCCn3nnc4ccccc43)CC2)c1`, the inhibition is 64.5% in test [1] (filed as antagonist), -6.65% in test [5], 61.3% in test [3] (filed as antagonist) and -2.01% in test [4].

Turning to `c1ccc2nn(CCCCN3CCN(c4nsc5ccccc45)CC3)nc2c1`, the inhibition in test [1] (filed as antagonist) is 101%; in test [5] (filed as antagonist), 78.3%; in test [6], -9.49%; in test [2] (filed as antagonist), 68.8%; in test [3] (filed as antagonist), 100%; in test [4] (filed as antagonist), 96.2%.

Turning to `c1ccc2c(c1)nnn2CCCCN1CCN(c2noc3ccccc23)CC1`, the inhibition in test [1] (filed as antagonist) came out at 88.8%; in test [5], 38.3%; in test [2] (filed as antagonist), 85.9%; in test [3] (filed as antagonist) it was 100%; in test [4] (filed as antagonist) it was 99.2%.

Take `FC(F)(F)c1cccc(N2CCN(CCCCCCn3nnc4ccccc43)CC2)c1`: the inhibition in test [1] (filed as antagonist) was 53.5%; in test [5], 11.3%; in test [6] it was -9.54%; in test [3] (filed as antagonist) it was 63.3%; in test [4], 4.15%.

As to `Fc1ccc2c(C3CCN(CCCn4nnc5ccccc54)CC3)noc2c1`, the inhibition in test [1] (filed as antagonist) stood at 98.7%; in test [5] (filed as antagonist) it was 96.4%; in test [6] (filed as antagonist), 76.9%; in test [2], 39.8%; in test [3] (filed as antagonist), 98.8%; in test [4] (filed as antagonist), 87.7%.

On to `COc1ccccc1N1CCN(CCCCn2cnc3ccccc32)CC1`, for which the inhibition in test [1] (filed as antagonist) was 68.7%; in test [5] it was -4.99%; in test [2] it was -0.88%; in test [3] (filed as antagonist) it was 86.9%; in test [4] it was 22.8%.

With `FC(F)(F)c1cccc(N2CCN(CCCCCn3nnc4ccccc43)CC2)c1`, the inhibition turned out to be 71.4% in test [1] (filed as antagonist), 7.37% in test [5], 75.3% in test [3] (filed as antagonist) and 13% in test [4].

`Fc1ccc2c(N3CCN(CCCn4nnc5ccccc54)CC3)noc2c1`: the inhibition in test [1] (filed as antagonist) turned out to be 95.8%; in test [5] (filed as antagonist), 80.9%; in test [2] (filed as antagonist), 46%; in test [3] (filed as antagonist) it was 95.3%; in test [4] (filed as antagonist) it was 86.2%.

With `Fc1ccc2c(N3CCN(CCCCn4nc5ccccc5n4)CC3)noc2c1`, the inhibition in test [1] (filed as antagonist) worked out at 96.5%; in test [5] (filed as antagonist) it was 61.1%; in test [2] (filed as antagonist) it was 83.1%; in test [3] (filed as antagonist), 101%; in test [4] (filed as antagonist), 99%.

`Clc1cccc(N2CCN(CCCCn3cnc4ccccc43)CC2)c1Cl`: the inhibition in test [1] (filed as antagonist) was 55%; in test [5], -5.13%; in test [2], 11.7%; in test [3] (filed as antagonist), 78%; in test [4], 27%.

Turning to `Clc1cccc(N2CCN(CCCCn3nnc4ccccc43)CC2)c1`, the inhibition worked out at 77.6% in test [1] (filed as antagonist); 17.2% in test [5]; 5.9% in test [2]; 97.4% in test [3] (filed as antagonist); 74.2% in test [4] (filed as antagonist).

`COc1cccc(N2CCN(CCCCn3cnc4ccccc43)CC2)c1`: the inhibition in test [1] is 13.1%; in test [2] it was -1.06%; in test [3] (filed as antagonist), 95.6%; in test [4] (filed as antagonist), 55%.

For the compound `Fc1ccc2ncn(CCCCN3CCN(c4cccc(C(F)(F)F)c4)CC3)c2c1`, the inhibition was 26.1% in test [1], -7.67% in test [2], 79.7% in test [3] (filed as antagonist) and 34.7% in test [4].

For `FC(F)(F)c1cccc(N2CCN(CCCCn3nnc4ccccc43)CC2)c1`, the inhibition is 63.4% in test [1] (filed as antagonist); 0% in test [5]; -5.08% in test [2]; 72.5% in test [3] (filed as antagonist); 38% in test [4].

For the compound `c1ccc2nn(CCCCN3CCN(c4noc5ccccc45)CC3)nc2c1`, the inhibition worked out at 84.9% in test [1] (filed as antagonist); 5.31% in test [5]; 69.5% in test [2] (filed as antagonist); 99% in test [3] (filed as antagonist); 94% in test [4] (filed as antagonist).

By inhibition is commonly meant the drop in the measured response relative to a control, in per cent.
